One experiment addresses T1, reverse transcriptase (Human immunodeficiency virus type 1 group M subtype B, UniProt P04585).
T1 construct: negative control (mixture without reverse transcriptase); purchased Roche Diagnostics GmbH, Mannheim, Germany
Put plainly: Biochemical reverse transcriptase assay (Reverse Transcriptase Assay, colorimetric, Roche). On the procedure: The “Reverse Transcriptase Assay, colorimetric” (Roche Diagnostics GmbH, Mannheim, Germany) is used in accordance with the manufacturer's information. The test substances are dissolved in DMSO and are used in the test diluted in 5-fold steps (final DMSO concentration 1%). The resulting values of the photometric evaluation (405/492 nm) are less than 0.1 for the negative control (mixture without reverse transcriptase) and are in the region of 1.5 for the positive control (mixture without test substance). The IC50 values of the test substances are determined as the concentration of the test substance dilution at which the measured optical density is 50% of the positive control.

Another experiment deals with HIV-1LAI. Put plainly: H9 assay with wild-type HIV-1 (HIV-1LAI supernatant infection, AlamarBlue). Format: cell-based. As to conditions: Human immunodeficiency virus 1, 120 h, H9 cells, 10% FCS, 5 days. How it is done:
For the mixture for a 96-well MTP, 3 million PBLs are pelleted, suspended in 1 ml of RPMI 1640 medium/10% FCS and incubated together with a suitable amount of HIV-1LAI (NIH AIDS Research & Reference Reagent Program, Germantown, USA) at 37° C. for 2 hours (pellet infection). Unadsorbed viruses are subsequently washed out with PBS, and the infected cells are pelleted again and suspended in 18 ml of RPMI 1640 medium/10% FCS/interleukin-2 (40 U/ml). 180 μl thereof are pipetted into each well of a white 96-well MTP with 20 μl of test substance in suitable dilution. Alternatively, after preparation of the substance dilutions in the MTP, the HIV is pipetted in together with the cells and is not washed out again (supernatant infection). In order to avoid edge effects, the wells at the edge of the MTP are not used for substance dilutions. The second vertical row of the MTP contains only infected cells (virus control) and the eleventh vertical row only uninfected cells (cell control), in each case in RPMI 1640 medium/10% FCS/interleukin-2 (40 U/ml). The other wells of the MTP contain the compounds of the invention in various concentrations starting from the third vertical row, from which the test substances are diluted in 3-fold steps up to the tenth vertical row 3^7-fold. The test substances are dissolved in DMSO, whereby the final DMSO concentration in the test mixture is 1%. The test mixtures are incubated at 37° C./5% CO2. After 5 and 7 days, 50 μl of cell-free supernatant are removed from each well to determine the amount of p24 present by means of a p24 ELISA (HIV-1 p24^CA Antigen Capture Assay Kit, NCI-Frederick Cancer Research and Development Center, Frederick, USA). From the resulting values of the photometric evaluation (450/620 nm) the EC50 values of the test substances are determined as the concentration at which the amount of p24 is 50% of the untreated infected cells.
Alternatively, H9 cells (ATCC, Wesel, Germany) are employed instead of PBLs for testing the test substances. H9 cells are incubated in RPMI 1640 medium with 2% or 10% FCS as a HIV-1LAI supernatant infection at 37° C./5% CO2, (20 μl of substance dilution and 80 μl of cells/virus per well) in accordance with the pattern described above for 5 days. Subsequently, 10 μl of AlamarBlue (Invitrogen, Karlsruhe, Germany) are added to each well, and the MTPs are incubated at 37° C. for 3 hours before the fluorimetric evaluation takes place (544/590 nm). The resulting values are about 40 000 for the untreated uninfected cells and about 7000 for the untreated infected cells. In the low concentration range, the EC50 values of the test substances are determined as the concentration at which the fluorescence is 50% of the untreated uninfected cells (in each case subtracting the values of the untreated infected cells). In addition, in the high concentration range, the CC50 values of the test substances are determined as the concentration at which the fluorescence is 50% of the untreated uninfected cells (in each case subtracting the values of the untreated infected cells).
In general terms: The colour change of resazurin is a common sign of viable cells or microbes.

Experiment [1] deals with HIV-1NL4-3 reporter virus, wild-type. Put plainly: Light assay with wild-type HI reporter virus in MT4 7F2 cells. Format: cell-based. As to conditions: Human immunodeficiency virus 1, 120 h, read-out: EC50 (nM) MT4 7F2 cells HIV-1NL4-M3 wt 2% FCS. How it is done:
(§1) For the mixture for a 96-well MTP, 3 million MT4 7F2 cells are pelleted, suspended in 1 ml of RPMI 1640 medium without phenol red (Invitrogen, Karlsruhe, Germany)/10% FCS/10% AIM-V (Invitrogen, Karlsruhe, Germany) and incubated together with a suitable amount of the corresponding HIV-1NL4-3 reporter virus at 37° C. for 2 hours (pellet infection). Unadsorbed viruses are subsequently washed out with PBS, and the infected cells are pelleted again and suspended in 8 ml of RPMI 1640 medium without phenol red/2% or 10% FCS/10% AIM-V. 80 μl thereof are pipetted into each well of a white 96-well MTP with 20 μl of test substance in suitable dilution. To avoid edge effects, the wells on the edge of the MTP are not used for substance dilutions. The second vertical row of the MTP contains only infected cells (virus control) and the eleventh vertical row only uninfected cells (cell control), in each case in RPMI 1640 medium without phenol red/2% or 10% FCS/10% AIM-V. The other wells of the MTP contain the compounds of the invention in various concentrations starting from the third vertical row, from which the test substances are diluted in 3-fold steps up to the tenth vertical row 3^7-fold. The test substances are dissolved in DMSO, whereby the final DMSO concentration in the test mixture is 1%. The test mixtures are incubated at 37° C./5% CO2 for five days and, after the addition of 15 μl of Lu164 substrate (5 mg/ml coelenterazine dissolved in 30 μM glutathione/DMSO, 100 mM NaCl, 1M MES, 100 mM glutathione), evaluated by luminometry. The resulting values are in the region of 1 000 000 RLUs (relative light units) for the virus control and 300 to 400 RLUs for the cell control. The EC50 values of the test substances are determined as the concentration at which the virus replication measured in RLUs is 50% of the untreated infected cells.

Experiment [2] deals with HIV-1NL4-3 reporter virus, reverse transcriptase mutations K103N-Y181C. Put plainly: Light assay with inhibitor-resistant HI reporter virus in MT4 7F2 cells. Format: cell-based. As to conditions: Human immunodeficiency virus 1, 120 h, read-out: EC50 (nM) MT4 7F2 cells HIV-1NL4-M3 K103N-Y181C 2% FCS. On the procedure: as §1
[3] abbreviates: colorimetric RT assay, final DMSO 1%, read-out: IC50 (nM) RT assay.

The source of these data is patent publication US8575357B2, “Substituted (thiazolyl-carbonyl)imidazolidinones and use thereof” (AiCuris GmbH & Co. KG, priority 2009, dated 2013).

Molecules are shown by their SMILES. Read-outs that look alike come from different tables or passages of the source.

With `O=C1CN(C(=O)c2nc(-c3ccc(F)c(Cl)c3)c(-c3cccc(Cl)c3)s2)CN1` [Example 2, 1-{[4-(3-Chloro-4-fluorophenyl)-5-(3-chlorophenyl)-1,3-thiazole-2-yl]carbonyl}imidazolidin-4-one], the IC50 on reverse transcriptase (setting [3]) is 17 nM. The figures for the 50% effective concentration (EC50) (with HIV-1LAI; in experiment [1]; in experiment [2]) were 30 nM, 4 nM and 91 nM, respectively.
For the compound `O=C1CN(C(=O)c2nc(-c3cccc(Cl)c3)c(-c3cccc(Cl)c3)s2)CN1` [Example 20, 1-{[4,5-Bis(3-chlorophenyl)-1,3-thiazole-2-yl]carbonyl}imidazolidin-4-one], the half-inhibitory concentration (IC50) on reverse transcriptase (setting [3]) is 47 nM. Also, the EC50 in the experiment with HIV-1LAI is 7 nM; in experiment [1], 1 nM; in experiment [2], 149 nM.
In the case of `O=C1CN(C(=O)c2nc(-c3cccc(Cl)c3)c(-c3cc(F)cc(Cl)c3)s2)CN1` [Example 3, 1-{[5-(3-Chloro-5-fluorophenyl)-4-(3-chlorophenyl)-1,3-thiazole-2-yl]carbonyl}imidazolidin-4-one], the IC50 on reverse transcriptase (setting [3]) stood at 20 nM. For the same compound, the EC50 in the experiment with HIV-1LAI worked out at 12 nM; in experiment [1], 0.6 nM; in experiment [2], 60 nM.
`N#Cc1cc(F)cc(-c2sc(C(=O)N3CNC(=O)C3)nc2-c2ccc(F)c(Cl)c2)c1` [Example 11]: the concentration for half-maximal inhibition (IC50) against reverse transcriptase turned out to be 13 nM. Besides, the concentration for a half-maximal effect (EC50) was determined as 4 nM with HIV-1LAI, 5 nM in experiment [1] and 69 nM in experiment [2].
As for `O=C1CN(C(=O)c2nc(-c3ccc(F)c(Cl)c3)c(-c3cc(F)cc(Cl)c3)s2)CN1` [Example 1, 1-{[4-(3-Chloro-4-fluorophenyl)-5-(3-chloro-5-fluorophenyl)-1,3-thiazole-2-yl]carbonyl}imidazolidin-4-one], the IC50 at reverse transcriptase (setting [3]) worked out at 61 nM. Besides, the half-maximal effective concentration (EC50) with HIV-1LAI is 14 nM; in experiment [1], 2 nM; in experiment [2], 55 nM.

What is called IC50 is the concentration at which inhibition is half-maximal. The term EC50 denotes the midpoint of the concentration-response curve.
